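Five concentrations, 48 hours, 96-well plates. GI50 marks 50% less growth.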 Activity calls are given as the source filed them. Rule as the data show it: active = GI50 up to about 1.1 µM and inactive = higher.
Columns and labels:
Test in all cases: NCI anticancer screen, dose series, 48 h
[1] = tested on: HCT-116
[2] = tested on: K562
[3] = tested on: ACHN
[4] = tested on: UACC-62
[5] = tested on: U-251
[6] = tested on: SK-MEL-2
[7] = tested on: SNB-19
[8] = tested on: MOLT-4
[9] = tested on: CAKI-1
[10] = tested on: UACC-257
[11] = tested on: IGROV-1
[12] = tested on: SF-539
[13] = tested on: HCC 2998
[14] = tested on: SK-MEL-5
[15] = tested on: SN12C
[16] = tested on: RPMI-8226
[17] = tested on: SK-OV-3
[18] = tested on: HL-60
[19] = tested on: TK-10

| SMILES | GI50 [1] | GI50 [2] | GI50 [3] | GI50 [4] | GI50 [5] | GI50 [6] | GI50 [7] | GI50 [8] | GI50 [9] | GI50 [10] | GI50 [11] | GI50 [12] | GI50 [13] | GI50 [14] | GI50 [15] | GI50 [16] | GI50 [17] | GI50 [18] | GI50 [19] |
| --- | --- | --- | --- | --- | --- | --- | --- | --- | --- | --- | --- | --- | --- | --- | --- | --- | --- | --- | --- |
| Cc1c2cc[n+](C)cc2c(C)c2c1[nH]c1ccc(Oc3ccccc3)cc12 | 1.29 µM (inactive) | 0.665 µM (active) | 2.48 µM (inactive) | 1.43 µM (inactive) | 0.236 µM (active) | 0.832 µM (active) | 0.506 µM (active) | 1.69 µM (inactive) | 2.12 µM (inactive) | 1.28 µM (inactive) | 2.37 µM (inactive) | 1.26 µM (inactive) | 3.18 µM (inactive) | 1.01 µM (active) | 0.303 µM (active) | 2.64 µM (inactive) | 1.14 µM (inactive) |  |  |
| COc1cc(OC)c(/C=C2\N=C(C)N(Nc3nnc(NN4C(=O)/C(=C/c5c(OC)cc(OC)cc5OC)N=C4C)c4ccccc34)C2=O)c(OC)c1 | > 100 µM (inactive) | > 100 µM (inactive) | > 100 µM (inactive) | > 100 µM (inactive) | > 100 µM (inactive) |  | > 100 µM (inactive) | > 100 µM (inactive) |  | > 100 µM (inactive) | > 100 µM (inactive) | > 100 µM (inactive) |  | > 100 µM (inactive) | > 100 µM (inactive) | > 100 µM (inactive) |  | > 100 µM (inactive) |  |
| COc1cc(/C=C/c2ccc(O)c(OC)c2)cc(OC)c1 | 27.5 µM (inactive) | 26.4 µM (inactive) | 22.2 µM (inactive) |  | 19.5 µM (inactive) |  | 36.4 µM (inactive) | 20.9 µM (inactive) | 27.1 µM (inactive) | 24.8 µM (inactive) | 39.9 µM (inactive) |  | 49.7 µM (inactive) | 23.9 µM (inactive) |  | 30.3 µM (inactive) | 26.9 µM (inactive) | 12.6 µM (inactive) | 20.2 µM (inactive) |
| CCN(CC)c1oc(N(CC)CC)c(C(=O)Nc2ccccn2)c(=O)c1C(C)=O | > 100 µM (inactive) | > 100 µM (inactive) | > 100 µM (inactive) | > 100 µM (inactive) | > 100 µM (inactive) | > 100 µM (inactive) | > 100 µM (inactive) | > 100 µM (inactive) | > 100 µM (inactive) |  | > 100 µM (inactive) | > 100 µM (inactive) |  | > 100 µM (inactive) | > 100 µM (inactive) | > 100 µM (inactive) | > 100 µM (inactive) |  | > 100 µM (inactive) |
| c1ccc(NC2(c3nnnn3C3CCCCC3)CCNCC2)cc1 | 15.2 µM (inactive) |  | 20.1 µM (inactive) | 18.3 µM (inactive) | 16.6 µM (inactive) |  | 17.5 µM (inactive) | 18.2 µM (inactive) |  | 15.7 µM (inactive) | 32.7 µM (inactive) | 15.6 µM (inactive) | 11.7 µM (inactive) | 19.5 µM (inactive) | 36.6 µM (inactive) | 22.9 µM (inactive) | 26 µM (inactive) | 14.1 µM (inactive) | 16.8 µM (inactive) |
| CC(CCC(=O)O)c1ccc(Br)cc1 (configuration not stated) | > 100 µM (inactive) | > 100 µM (inactive) | > 100 µM (inactive) | > 100 µM (inactive) | > 100 µM (inactive) | > 100 µM (inactive) | > 100 µM (inactive) | > 100 µM (inactive) | > 100 µM (inactive) | > 100 µM (inactive) | > 100 µM (inactive) |  | > 100 µM (inactive) | > 100 µM (inactive) | > 100 µM (inactive) | > 100 µM (inactive) | > 100 µM (inactive) | > 100 µM (inactive) | > 100 µM (inactive) |
| COc1cc(S(=O)(=O)Nc2nc(-c3ccc(N4C(=O)CSC4c4cccs4)cc3)cs2)ccc1Cl (configuration not stated) | 45.2 µM (inactive) | 31 µM (inactive) | > 100 µM (inactive) | 83.6 µM (inactive) | > 100 µM (inactive) | 57.5 µM (inactive) | > 100 µM (inactive) | 22.1 µM (inactive) | > 100 µM (inactive) | 71 µM (inactive) | 34.3 µM (inactive) | 49.7 µM (inactive) |  | > 100 µM (inactive) | 25.6 µM (inactive) |  | > 100 µM (inactive) | 23.2 µM (inactive) | > 100 µM (inactive) |
| C[C@]12Cc3conc3C(O)=C1CC[C@@H]1C2CC[C@@]2(C)C1CC[C@@H]2O (some centres not stated) |  | 3.66 µM (inactive) | 23.3 µM (inactive) | 4.99 µM (inactive) | 20 µM (inactive) | 0.634 µM (active) | 31.4 µM (inactive) | 6.68 µM (inactive) | 8.24 µM (inactive) | 21.3 µM (inactive) | 26 µM (inactive) | 15.8 µM (inactive) |  | 10.5 µM (inactive) | 28.9 µM (inactive) | 1.93 µM (inactive) | 31.3 µM (inactive) | 2.55 µM (inactive) | 24.3 µM (inactive) |
| O=c1c2ccccc2nc(N/N=C/c2ccc(Cl)cc2)n1-c1ccccc1 | > 100 µM (inactive) | > 100 µM (inactive) | > 100 µM (inactive) | > 100 µM (inactive) | 46.6 µM (inactive) | 17.5 µM (inactive) | 36.5 µM (inactive) | > 100 µM (inactive) | > 100 µM (inactive) | > 100 µM (inactive) | > 100 µM (inactive) | 97.3 µM (inactive) | > 100 µM (inactive) | > 100 µM (inactive) | > 100 µM (inactive) |  | > 100 µM (inactive) | > 100 µM (inactive) | > 100 µM (inactive) |
| NCCCCNc1ccc2c(=O)[nH][nH]c(=O)c2c1 | > 100 µM (inactive) | > 100 µM (inactive) | > 100 µM (inactive) | > 100 µM (inactive) | > 100 µM (inactive) | > 100 µM (inactive) | > 100 µM (inactive) | > 100 µM (inactive) | > 100 µM (inactive) | > 100 µM (inactive) | > 100 µM (inactive) | > 100 µM (inactive) | > 100 µM (inactive) | > 100 µM (inactive) | > 100 µM (inactive) |  | > 100 µM (inactive) | > 100 µM (inactive) | > 100 µM (inactive) |
| COC(CC1(/C=C/O[Si](C(C)C)(C(C)C)C(C)C)C(=O)N(C)c2ccccc21)OC (configuration not stated) | 28.5 µM (inactive) | 51.5 µM (inactive) | 62.5 µM (inactive) | > 100 µM (inactive) | 51.9 µM (inactive) | > 100 µM (inactive) | > 100 µM (inactive) | 55.3 µM (inactive) | > 100 µM (inactive) | 47 µM (inactive) |  |  | 64 µM (inactive) | 36.8 µM (inactive) | 78.9 µM (inactive) | 15.3 µM (inactive) | 35.7 µM (inactive) | 51.8 µM (inactive) |  |
| CC/C=C/c1cc2c(cc1O)CCC1C2CC[C@@]2(C)C1CC[C@@H]2O (some centres not stated) | 1.02 µM (active) | 1.28 µM (inactive) | 2.14 µM (inactive) |  | 1.7 µM (inactive) | 1.21 µM (inactive) | 2.6 µM (inactive) | 1.97 µM (inactive) | 0.524 µM (active) | 10.4 µM (inactive) | 4.37 µM (inactive) |  | 14.7 µM (inactive) | 1.56 µM (inactive) |  | 1.89 µM (inactive) | 2.43 µM (inactive) |  | 1.03 µM (active) |
